Reference: ChEMBL document CHEMBL1268944, “The antiplasmodial activity of norcantharidin analogs” (Bioorg Med Chem Lett, 2010)

How the values were obtained:
[1] = Inhibition of human PP2A
Plasmodium falciparum [2] = test: Antiplasmodial activity against chloroquine-sensitive Plasmodium falciparum D6 assessed as inhibition of parasite LDH activity after 72 hrs by malstat reagent method; assay type: functional, organism-based; conditions: D6, 72 h
Plasmodium falciparum [3] = test: Antiplasmodial activity against chloroquine-resistant Plasmodium falciparum W2 assessed as inhibition of parasite LDH activity […] after 72 hrs by malstat reagent method; assay type: functional, organism-based; conditions: W2, 72 h
[4] = Inhibition of human PP1
Homo sapiens [5] = species: Homo sapiens; test: Inhibition of human PP2A at 100 uM
Homo sapiens [6] = species: Homo sapiens; test: Inhibition of human PP1 at 100 uM
[7] = Inhibition of human PP2A expressed in Escherichia coli BL21
[8] = Inhibition of human PP1 expressed in Escherichia coli BL21
[9] = Solubility of the compound in PP2A assay medium at 40 mM; assay type: physicochemical; conditions: 40000 µM
[10] = Solubility of the compound in PP1 assay medium at 40 mM; assay type: physicochemical; conditions: 40000 µM

SMILES | IC50 [1] [µM] | IC50 (Plasmodium falciparum [2]) [µM] | IC50 (Plasmodium falciparum [3]) [µM] | IC50 [4] [µM] | also measured
CSc1ccc(NC(=O)C2C(C(=O)O)[C@@H]3CC[C@H]2O3)cc1 (stereo not given in full) | 14 | > 500 | > 500 | 10 | –
NCCCN1C(=O)C2C(C1=O)[C@H]1CC[C@@H]2O1 (stereo not given in full) | – | > 500 | > 500 | – | –
CCN1C(=O)C2C(C1=O)[C@H]1CC[C@@H]2O1 (stereo not given in full) | – | > 500 | > 500 | – | –
CSc1ccccc1NC(=O)C1C(C(=O)O)[C@@H]2CC[C@H]1O2 (stereo not given in full) | – | 340 | > 500 | – | inhibition (Homo sapiens [5]): 58%; inhibition (Homo sapiens [6]): 76%
Cc1cccc(NC(=O)C2C(C(=O)O)[C@@H]3CC[C@H]2O3)c1C (stereo not given in full) | – | 260 | 220 | – | inhibition (Homo sapiens [5]): 62%; inhibition (Homo sapiens [6]): 84%
CCCN1C(=O)C2C(C1=O)[C@H]1CC[C@@H]2O1 (stereo not given in full) | – | > 500 | > 500 | – | –
COc1ccc(CN2C(=O)C3C(C2=O)[C@H]2CC[C@@H]3O2)cc1 (stereo not given in full) | – | 24 | 25 | – | –
O=C(O)C1C(C(=O)Nc2ccc([N+](=O)[O-])cc2)[C@H]2CC[C@@H]1O2 (stereo not given in full) | 23 | > 500 | 393 | 74 | –
O=C(O)C1C(C(=O)NCCN2CCOCC2)[C@H]2CC[C@@H]1O2 (stereo not given in full) | 43 | > 500 | > 500 | 30 | –
O=C(O)C1C(C(=O)Nc2cccc3ccccc23)[C@H]2CC[C@@H]1O2 (stereo not given in full) | – | 210 | 193 | – | inhibition (Homo sapiens [5]): 73%; inhibition (Homo sapiens [6]): 79%
O=C(O)C1C(C(=O)Nc2ccccc2CO)[C@H]2CC[C@@H]1O2 (stereo not given in full) | – | 275 | 333 | – | inhibition (Homo sapiens [5]): 30%; inhibition (Homo sapiens [6]): 84%
O=C(O)C1C(C(=O)Nc2cccc(Cl)c2)[C@H]2CC[C@@H]1O2 (stereo not given in full) | 14 | 250 | 185 | 31 | –
Cc1cc(C)c(NC(=O)C2C(C(=O)O)[C@@H]3CC[C@H]2O3)c(C)c1 (stereo not given in full) | – | 340 | > 500 | – | inhibition (Homo sapiens [5]): 23%; inhibition (Homo sapiens [6]): 63%
C=Cc1ccc(NC(=O)C2C(C(=O)O)[C@@H]3CC[C@H]2O3)cc1 (stereo not given in full) | 11 | > 500 | 400 | 23 | –
O=C(O)CCCCCNC(=O)C1C(C(=O)O)[C@@H]2CC[C@H]1O2 (stereo not given in full) | 3.5 | 260 | > 500 | 14 | –
O=C(O)C1C(C(=O)NCc2ccc(F)c(F)c2)[C@H]2CC[C@@H]1O2 (stereo not given in full) | 26 | 473 | > 500 | 26 | –
CCCCCOc1ccc(NC(=O)C2C(C(=O)O)[C@@H]3CC[C@H]2O3)cc1 (stereo not given in full) | 15 | 110 | 333 | 11 | –
O=C(O)[C@@H]1[C@H](C(=O)O)[C@H]2CC[C@@H]1O2 [ENDOTHALL] | – | – | – | – | IC50 [7]: 90 nM; IC50 [8]: 4 µM
CCCNC(=O)C1C(C(=O)O)[C@@H]2CC[C@H]1O2 (stereo not given in full) | 18 | > 500 | > 500 | 46 | –
C#Cc1cccc(NC(=O)C2C(C(=O)O)[C@@H]3CC[C@H]2O3)c1 (stereo not given in full) | 16 | 193 | 194 | 20 | –
O=C1C2C(C(=O)N1C1CCCCC1)[C@H]1CC[C@@H]2O1 (stereo not given in full) | – | 140 | 55 | – | –
Cc1cccc(C)c1NC(=O)C1C(C(=O)O)[C@@H]2CC[C@H]1O2 (stereo not given in full) | – | 306 | 290 | – | inhibition (Homo sapiens [5]): 24%; inhibition (Homo sapiens [6]): 68%
O=C(O)C1C(C(=O)NCc2ccc(C(F)(F)F)cc2)[C@H]2CC[C@@H]1O2 (stereo not given in full) | 20 | 248 | 433 | 16 | –
CC(CO)N1C(=O)C2C(C1=O)[C@H]1CC[C@@H]2O1 (stereo not given in full) | – | > 500 | > 500 | – | –
O=C(O)C1C(C(=O)Nc2ccc3ccccc3c2)[C@H]2CC[C@@H]1O2 (stereo not given in full) | 15 | 280 | 257 | 14 | –
CCCCCCCCCCN1C(=O)C2C(C1=O)[C@H]1CC[C@@H]2O1 (stereo not given in full) | – | 375 | 141 | – | –
CCC(C)N1C(=O)C2C(C1=O)[C@H]1CC[C@@H]2O1 (stereo not given in full) | – | 225 | 125 | – | –
CCCCCCCCCCCCNC(=O)C1C(C(=O)O)[C@@H]2CC[C@H]1O2 (stereo not given in full) | – | 70 | 106 | – | solubility [9]: Insoluble; solubility [10]: Insoluble
O=C1C2C(C(=O)N1N1CCOCC1)[C@H]1CC[C@@H]2O1 (stereo not given in full) | – | > 500 | > 500 | – | –
CCc1ccccc1NC(=O)C1C(C(=O)O)[C@@H]2CC[C@H]1O2 (stereo not given in full) | 24 | 360 | 400 | 51 | –
